Entries after “also recorded” stand apart in the source; their conditions may differ. Where two headings read alike, the source gives them in different places.

In one assay the test system is MMP-1. The experiment in a line: MMP-1 expression and secretion in CSE exposed small airway epithelial cell (SAEC) cultures. It is filed as cell-based, human. Particulars: for MMP1 expression / MMP1 induction: SAEC, 5% CSE, varying doses (dose response). Here is the method:
FIG. 2: Fluoxetine inhibits MMP-1 production and TLR-4 signaling in CSE exposed SAEC cultures.
(A) Fluoxetine. (B) Derivative 2. (C) Derviative 5. SAEC cultures were treated with 5% CSE and varying doses of Fluoxetine, Derivative 2 and Derivative 5, respectively. Treatment with the derivatives decreased MMP1 induction after cigarette smoke treatment.
The compounds in this clinical set have all been tested and utilized in humans for various indications. These molecules were tested for their capacity to modulate MMP-1 smoke induced transcriptional activation. […] Prior work in our lab was critical in establishing MMP-1 as a destructive agent in the progression of COPD in humans. As such, we next exposed human small airway epithelial cells to cigarette smoke extract followed by treatment with fluoxetine.
Aim 1b: Determining if potential CL(s) maintain their ability to inactivate MMP1 transcription and inflammatory pathways via inhibition of TLR4 signaling in human small airway epithelial cells. For each positive hit and fluoxetine, the DRC is used to derive their respective IC50's and Hill slopes. The concentration required to achieve a 50%, 75% and 99.9% fractional effect is calculated using the formula: [Cf]=[(fraction/100-fraction) ^(1/Hill slope)]IC50. The effect of each calculated concentration on cell viability is tested in triplicate on primary human small airway epithelial cell (hSAEC) culture via MTT assay. […] The chosen concentrations are tested on SAEC cultures exposed to 5% cigarette smoke extract for 24 h to assess their effects on MMP1 and TLR4 expression via mRNA extraction to analyze transcript levels by real-time RT-PCR. Culture media is collected and MMP1 secretion assessed by ELISA (R&D Systems, MN). Protein collected for western blot is used to assess IRAK phosphorylation, a known downstream effector of TLR4 activity. In addition, PCR arrays (ThermoFisher, MA) that measure the expression of cytokines that have been implicated in the pathogenesis of COPD, their receptors and the expression of transcription factors that regulate the cellular response to oxidants and CSE exposure are used to determine the ability of each derivative to suppress inflammatory signaling in smoke exposed cells.
SAEC cultures were treated with 5% CSE and varying doses of Fluoxetine, Derivative 2 and Derivative 5, respectively. Treatment with the derivatives decreased MMP1 induction after cigarette smoke treatment.

In a further assay the test system is IL-8. Description: IL-8 expression in CSE treated SAEC, dose response. Type of assay: cell-based, human. As to conditions: 5% CSE, varying doses.
A further assay concerns MMP1. The experiment in a line: MMP1 concentration, fluoxetine derivatives on SAEC (FIG. 6). It is filed as cell-based, human. The source says:
FIG. 6: MMP1 activity—fluoexetine derivatives on SAEC. Comparison of Derivatives 1-6 on MMP1 concentration.

A further assay has as its system TLR-4. Description: TLR-4 signaling (TLR-4 expression, phospho-IRAK) in CSE exposed SAEC cultures. It is filed as cell-based, human. How it is done: (§1) These molecules were tested for their capacity to modulate MMP-1 smoke induced transcriptional activation. […] As such, we next exposed human small airway epithelial cells to cigarette smoke extract followed by treatment with fluoxetine.
For each positive hit and fluoxetine, the DRC is used to derive their respective IC50's and Hill slopes. The concentration required to achieve a 50%, 75% and 99.9% fractional effect is calculated using the formula: [Cf]=[(fraction/100-fraction) ^(1/Hill slope)]IC50. The effect of each calculated concentration on cell viability is tested in triplicate on primary human small airway epithelial cell (hSAEC) culture via MTT assay. […] The chosen concentrations are tested on SAEC cultures exposed to 5% cigarette smoke extract for 24 h to assess their effects on MMP1 and TLR4 expression via mRNA extraction to analyze transcript levels by real-time RT-PCR. Culture media is collected and MMP1 secretion assessed by ELISA (R&D Systems, MN). Protein collected for western blot is used to assess IRAK phosphorylation, a known downstream effector of TLR4 activity.

The subject of another assay is MMP1 promoter. The experiment in a line: MMP1 promoter luciferase reporter screen in CSE-treated transfected HEK 293T cells. Type of assay: cell-based, human. Particulars: NIH clinical collection screen. How it is done: as §1
The next assay deals with smoke exposed mice. Description: Cigarette smoke exposed mice, inflammatory BALF cell counts. Particulars: cigarette smoke 10 days, oral. Type of assay: in vivo, mouse. From the text:
FIG. 4: Oral fluoxetine treatment in smoke exposed mice reduces inflammatory BALF cell counts. […] (B) Representative cytospin DifQuik stains for each experimental group.

The test system of another assay is smoke exposed rabbits. As to conditions: cigarette smoke 16 weeks, oral; for mean linear intercept (morphometric analysis): versus smoke alone. The source says: (C) Representative H&E stains for each treatment group.
As the next step, we observed the ability of oral duloxetine to inhibit cigarette smoke induced up-regulation of MMP1 and lung destruction in a rabbit model. Rabbits were utilized for these experiments since unlike mice they produce MMP-1. Rabbits were exposed to cigarette smoke for 16 weeks while receiving placebo or orally administered duloxetine.
To assess the effects of SSRIs on the cigarette smoke induced inflammatory response, we utilized smoke-exposed mice.

With `Cc1ccc(S(=O)(=O)N(C)CCC(Oc2ccc(C(F)(F)F)cc2)c2ccccc2)cc1` (stereo not shown) [Derivative 5, N,4-dimethyl-N-(3-phenyl-3-(4-(trifluoromethyl)phenoxy)propyl)benzenesulfonamide], in the assay on MMP-1, the “MMP1 expression / MMP1 induction” value is reported as “reduces MMP1 expression”. For the same compound, in the assay with IL-8, the IL-8 expression entry was “reduces IL-8 expression”. For the same compound, the MMP1 concentration entry in the assay on MMP1 (5 μM) and with MMP1 (10 μM) was “significantly decreasd MMP1 concentrations” in each case.

As for `CNCCC(Oc1ccc(C(F)(F)F)cc1)c1ccccc1` (stereo not shown) [Fluoxetine], in the assay with MMP-1 (5% CSE exposed SAEC cultures), the “MMP1 present in the media (secretion)” value is “decreased MMP-1 expression and secretion; also recorded: decreases MMP1 present in the media”; the “expression of MMP1 transcript (PCR)” value is listed as “decreased MMP-1 expression”. For the same compound, in the assay with MMP-1 (5% CSE exposed SAEC cultures, listed as fluoxetine), the “expression of MMP1 transcript (PCR)” value is recorded as “inhibits expression of MMP1 transcript”. In the assay on TLR-4, the TLR-4 expression result is on record as “decreased expression; also recorded: abrogates the CSE induced increase in TLR-4 expression” and the “phospho-IRAK (downstream effector of TLR-4)” value is recorded as “decreased expression; also recorded: abrogates”. The “inhibition of cigarette smoke induced MMP-1 production (MMP-1 smoke induced transcriptional activation)” value in the assay with MMP1 promoter is “potent inhibitors”. Also, the “inflammatory cell counts in lung lavage fluid (BALF)” value in the assay on smoke exposed mice is listed as “decreases the cell count”. Besides, in the assay on smoke exposed mice (listed as fluoxetine), the “inflammatory cell counts in lung lavage fluid (BALF)” value is reported as “decreased inflammatory cell counts”.

`CCCCN(C)CCC(Oc1ccc(C(F)(F)F)cc1)c1ccccc1` (stereo not shown) [Derivative 1, N-methyl-N-(3-phenyl-3-(4-(trifluoromethyl)phenoxy)propyl)butan-1-amine]: the MMP1 concentration result in the assay on MMP1 (5 μM) and with MMP1 (10 μM) was “significantly decreasd MMP1 concentrations” each time.

For the compound `CCC(=O)N(C)CCC(Oc1ccc(C(F)(F)F)cc1)c1ccccc1` (stereo not shown) [Derivative 4, N-methyl-N-(3-phenyl-3-(4-(trifluoromethyl)phenoxy)propyl)propionamide], the MMP1 concentration result in the assay with MMP1 (2 μM), with MMP1 (5 μM) and in the assay on MMP1 (10 μM) was “did not show any reduction of MMP1” each time.

`CNCC[C@H](Oc1cccc2ccccc12)c1cccs1` [Duloxetine]: the “inhibition of cigarette smoke induced MMP-1 production (MMP-1 smoke induced transcriptional activation)” value with MMP1 promoter was “potent inhibitors”. Also, the “MMP1 in bronchoalveolar lavage fluid (ELISA)” value is “decreases MMP1 present in the BALF” in the assay with smoke exposed rabbits and “reduced MMP1 levels” with smoke exposed rabbits (listed as duloxetine). The “mean linear intercept (morphometric analysis)” value is “significantly reduced mean linear intercept” in the assay with smoke exposed rabbits and “decreased mean linear intercepts” in the assay on smoke exposed rabbits (listed as duloxetine).

Turning to `CN(CCC(Oc1ccc(C(F)(F)F)cc1)c1ccccc1)S(C)(=O)=O` (stereo not shown) [Derivative 6, N-methyl-N-(3-phenyl-3-(4-(trifluoromethyl)phenoxy)propyl)methanesulfonamide], the MMP1 concentration entry with MMP1 (5 μM) and in the assay with MMP1 (10 μM) was “significantly decreasd MMP1 concentrations” in each case.

For the compound `CCNC(=S)N(C)CCC(Oc1ccc(C(F)(F)F)cc1)c1ccccc1` (stereo not shown) [Derivative 3, 3-ethyl-1-methyl-1-(3-phenyl-3-(4-(trifluoromethyl)phenoxy)propyl)thiourea], the MMP1 concentration entry with MMP1 (2 μM) is “did not show any reduction of MMP1”; with MMP1 (5 μM), “did not show any reduction of MMP1”; with MMP1 (10 μM), “significant reduction of MMP1”.

Take `CCNC(=O)N(C)CCC(Oc1ccc(C(F)(F)F)cc1)c1ccccc1` (stereo not shown) [Derivative 2, 3-ethyl-1-methyl-1-(3-phenyl-3-(4-(trifluoromethyl)phenoxy)propyl)urea]: the “MMP1 expression / MMP1 induction” value in the assay with MMP-1 is “reduces MMP1 expression”. For the same compound, the IL-8 expression entry in the assay on IL-8 was “reduces IL-8 expression”. The MMP1 concentration entry in the assay with MMP1 (5 μM) and with MMP1 (10 μM) was “significantly decreasd MMP1 concentrations” throughout.

Source of the values: patent US20240254077A1, “METHODS OF TREATING CHRONIC OBSTRUCTIVE PULMONARY DISEASE INCLUDING COMPOUNDS USEFUL THEREIN” (The Trustees of Columbia University in the City of New York, priority 2021, published 2024).
